Test results reported in the supplement of paper PMC12463676, “Small-molecule dissolution of stress granules by redox modulation benefits ALS models” (Nature Chemical Biology, 2025).

Experiments:
[1] = compound: NC(=O)CCCCC1CCSS1 [lipoamide]; test: thermal stability z-score vs DMSO; higher = more thermally stabilized by treatment; conditions: HeLa, lipoamide concentration 100 µM
Method: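 Cellular thermal proteome profiling in HeLa cells. Cells were treated with 100 µM lipoamide for 1 h, with or without 1 mM arsenate for a further 1 h, then heated to ten temperatures (37-66.3 °C), and soluble protein was quantified by TMT mass spectrometry relative to 0.1% DMSO controls. The thermal stability score (sum of log2 fold changes minus the abundance score) was transformed to a z-score; mean of n = 3 experiments.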

[2] = compound: O=[As]([O-])(O)O.[K+] [potassium arsenate]; test: as above; conditions: HeLa; arsenate concentration 1 mM
Method: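 Cellular thermal proteome profiling in HeLa cells treated with 1 mM arsenate for 1 h (DMSO pretreatment), heated to ten temperatures (37-66.3 °C). Soluble protein was quantified by TMT mass spectrometry relative to DMSO controls; the thermal stability score was transformed to a z-score; mean of n = 3 experiments.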

[3] = arsenate co-treatment: 1 mM arsenate 1 h
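Further: each temperature applied for 3 min, abundance score taken as mean log2 fold change at the two lowest temperatures, z-score obtained by mean subtraction and division by SD.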

Sequence of UniProt Q6IPR3 (Q6IPR3 whole entry): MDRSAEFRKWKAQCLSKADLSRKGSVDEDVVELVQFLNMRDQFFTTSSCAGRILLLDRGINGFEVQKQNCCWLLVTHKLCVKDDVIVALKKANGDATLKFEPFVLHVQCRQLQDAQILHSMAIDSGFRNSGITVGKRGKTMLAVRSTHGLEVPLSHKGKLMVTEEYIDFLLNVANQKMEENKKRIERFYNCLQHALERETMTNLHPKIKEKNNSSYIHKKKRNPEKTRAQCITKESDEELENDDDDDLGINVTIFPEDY
Sequence of UniProt O14530 (O14530 whole entry): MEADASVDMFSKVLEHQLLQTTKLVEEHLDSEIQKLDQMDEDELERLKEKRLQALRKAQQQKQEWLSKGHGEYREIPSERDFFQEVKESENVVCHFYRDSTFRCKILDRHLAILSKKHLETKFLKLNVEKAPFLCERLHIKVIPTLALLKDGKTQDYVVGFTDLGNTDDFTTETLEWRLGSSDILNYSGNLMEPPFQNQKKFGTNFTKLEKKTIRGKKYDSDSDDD
Sequence of UniProt Q96RT8 (Q96RT8 whole entry): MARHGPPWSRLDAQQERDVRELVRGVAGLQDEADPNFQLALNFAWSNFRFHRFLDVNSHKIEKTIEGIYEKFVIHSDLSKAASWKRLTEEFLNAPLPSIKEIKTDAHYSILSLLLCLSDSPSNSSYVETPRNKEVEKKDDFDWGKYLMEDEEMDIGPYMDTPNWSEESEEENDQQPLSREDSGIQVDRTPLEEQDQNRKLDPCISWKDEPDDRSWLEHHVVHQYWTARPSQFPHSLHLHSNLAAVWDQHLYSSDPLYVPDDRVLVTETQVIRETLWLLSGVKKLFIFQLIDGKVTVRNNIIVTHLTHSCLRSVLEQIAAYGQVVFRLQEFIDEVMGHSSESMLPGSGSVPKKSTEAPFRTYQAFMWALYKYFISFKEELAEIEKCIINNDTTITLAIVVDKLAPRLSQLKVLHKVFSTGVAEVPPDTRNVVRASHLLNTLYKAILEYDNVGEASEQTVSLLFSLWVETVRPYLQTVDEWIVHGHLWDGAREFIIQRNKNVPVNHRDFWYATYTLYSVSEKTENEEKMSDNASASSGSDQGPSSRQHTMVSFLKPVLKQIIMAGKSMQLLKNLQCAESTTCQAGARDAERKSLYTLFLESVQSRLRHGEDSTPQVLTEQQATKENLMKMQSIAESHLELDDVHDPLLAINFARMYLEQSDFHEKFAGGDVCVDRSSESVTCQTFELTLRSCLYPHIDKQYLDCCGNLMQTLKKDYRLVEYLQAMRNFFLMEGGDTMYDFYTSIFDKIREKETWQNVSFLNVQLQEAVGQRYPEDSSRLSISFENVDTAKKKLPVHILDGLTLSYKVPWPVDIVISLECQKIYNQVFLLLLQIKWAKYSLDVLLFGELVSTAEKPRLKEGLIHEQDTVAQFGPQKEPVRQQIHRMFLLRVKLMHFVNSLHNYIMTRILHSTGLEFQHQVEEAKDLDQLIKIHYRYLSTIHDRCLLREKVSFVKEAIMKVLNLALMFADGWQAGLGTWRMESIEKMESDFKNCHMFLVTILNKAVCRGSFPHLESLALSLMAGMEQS
Sequence of UniProt Q16881 (Q16881 whole entry): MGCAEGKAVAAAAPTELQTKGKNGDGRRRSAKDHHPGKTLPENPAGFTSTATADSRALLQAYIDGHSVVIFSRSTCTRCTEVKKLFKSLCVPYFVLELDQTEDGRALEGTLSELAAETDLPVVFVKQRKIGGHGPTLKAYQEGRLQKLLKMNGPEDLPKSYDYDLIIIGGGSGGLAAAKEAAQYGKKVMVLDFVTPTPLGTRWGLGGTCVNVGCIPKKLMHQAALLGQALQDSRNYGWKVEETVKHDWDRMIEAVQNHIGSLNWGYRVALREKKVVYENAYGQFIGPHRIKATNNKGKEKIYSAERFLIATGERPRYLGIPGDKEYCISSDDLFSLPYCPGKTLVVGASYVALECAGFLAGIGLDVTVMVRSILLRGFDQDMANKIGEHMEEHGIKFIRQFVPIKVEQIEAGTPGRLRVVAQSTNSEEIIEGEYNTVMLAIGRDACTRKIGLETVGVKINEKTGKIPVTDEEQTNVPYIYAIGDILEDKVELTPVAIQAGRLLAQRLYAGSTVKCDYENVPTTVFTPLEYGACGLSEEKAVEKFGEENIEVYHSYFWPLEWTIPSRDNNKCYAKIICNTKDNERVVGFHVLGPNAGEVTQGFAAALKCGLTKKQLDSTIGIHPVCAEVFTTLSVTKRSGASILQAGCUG
Sequence of UniProt P40222 (P40222 whole entry): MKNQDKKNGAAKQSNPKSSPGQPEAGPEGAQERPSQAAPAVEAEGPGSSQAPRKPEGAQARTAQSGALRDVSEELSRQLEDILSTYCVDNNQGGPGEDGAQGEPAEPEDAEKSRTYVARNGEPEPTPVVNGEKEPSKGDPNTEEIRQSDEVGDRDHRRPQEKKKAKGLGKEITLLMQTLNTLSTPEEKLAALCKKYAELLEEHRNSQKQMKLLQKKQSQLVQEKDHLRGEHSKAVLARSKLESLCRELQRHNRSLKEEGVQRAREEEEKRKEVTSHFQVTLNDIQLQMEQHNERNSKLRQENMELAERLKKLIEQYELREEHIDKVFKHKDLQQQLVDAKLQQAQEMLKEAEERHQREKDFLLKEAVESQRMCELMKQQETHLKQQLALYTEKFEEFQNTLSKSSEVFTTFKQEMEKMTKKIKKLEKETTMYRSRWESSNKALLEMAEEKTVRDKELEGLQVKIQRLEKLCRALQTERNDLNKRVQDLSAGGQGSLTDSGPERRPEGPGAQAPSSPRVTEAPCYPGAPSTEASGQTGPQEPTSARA
Sequence of UniProt A2RUC4 (A2RUC4 whole entry): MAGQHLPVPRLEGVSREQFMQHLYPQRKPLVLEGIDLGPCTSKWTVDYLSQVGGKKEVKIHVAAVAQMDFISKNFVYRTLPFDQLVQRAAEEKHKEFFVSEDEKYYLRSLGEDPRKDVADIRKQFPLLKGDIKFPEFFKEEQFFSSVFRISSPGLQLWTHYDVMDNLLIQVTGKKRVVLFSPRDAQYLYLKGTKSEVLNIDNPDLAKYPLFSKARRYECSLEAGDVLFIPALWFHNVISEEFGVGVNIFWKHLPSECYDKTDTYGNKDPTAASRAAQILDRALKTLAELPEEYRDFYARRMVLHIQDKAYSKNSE
Sequence of UniProt Q3KQV9 (Q3KQV9 whole entry): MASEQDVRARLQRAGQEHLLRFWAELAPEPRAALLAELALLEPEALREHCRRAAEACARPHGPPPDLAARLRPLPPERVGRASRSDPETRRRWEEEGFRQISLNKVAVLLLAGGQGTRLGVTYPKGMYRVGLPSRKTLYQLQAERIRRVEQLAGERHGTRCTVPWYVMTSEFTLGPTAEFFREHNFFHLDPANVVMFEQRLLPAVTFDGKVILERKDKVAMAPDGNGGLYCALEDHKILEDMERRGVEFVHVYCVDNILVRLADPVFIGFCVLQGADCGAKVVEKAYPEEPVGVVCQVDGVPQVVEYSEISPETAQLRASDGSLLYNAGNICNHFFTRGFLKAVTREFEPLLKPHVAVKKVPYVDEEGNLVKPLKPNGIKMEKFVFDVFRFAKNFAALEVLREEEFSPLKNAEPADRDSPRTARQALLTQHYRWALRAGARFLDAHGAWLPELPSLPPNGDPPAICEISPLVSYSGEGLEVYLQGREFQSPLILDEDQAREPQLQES
Sequence of UniProt O15042 (O15042 whole entry): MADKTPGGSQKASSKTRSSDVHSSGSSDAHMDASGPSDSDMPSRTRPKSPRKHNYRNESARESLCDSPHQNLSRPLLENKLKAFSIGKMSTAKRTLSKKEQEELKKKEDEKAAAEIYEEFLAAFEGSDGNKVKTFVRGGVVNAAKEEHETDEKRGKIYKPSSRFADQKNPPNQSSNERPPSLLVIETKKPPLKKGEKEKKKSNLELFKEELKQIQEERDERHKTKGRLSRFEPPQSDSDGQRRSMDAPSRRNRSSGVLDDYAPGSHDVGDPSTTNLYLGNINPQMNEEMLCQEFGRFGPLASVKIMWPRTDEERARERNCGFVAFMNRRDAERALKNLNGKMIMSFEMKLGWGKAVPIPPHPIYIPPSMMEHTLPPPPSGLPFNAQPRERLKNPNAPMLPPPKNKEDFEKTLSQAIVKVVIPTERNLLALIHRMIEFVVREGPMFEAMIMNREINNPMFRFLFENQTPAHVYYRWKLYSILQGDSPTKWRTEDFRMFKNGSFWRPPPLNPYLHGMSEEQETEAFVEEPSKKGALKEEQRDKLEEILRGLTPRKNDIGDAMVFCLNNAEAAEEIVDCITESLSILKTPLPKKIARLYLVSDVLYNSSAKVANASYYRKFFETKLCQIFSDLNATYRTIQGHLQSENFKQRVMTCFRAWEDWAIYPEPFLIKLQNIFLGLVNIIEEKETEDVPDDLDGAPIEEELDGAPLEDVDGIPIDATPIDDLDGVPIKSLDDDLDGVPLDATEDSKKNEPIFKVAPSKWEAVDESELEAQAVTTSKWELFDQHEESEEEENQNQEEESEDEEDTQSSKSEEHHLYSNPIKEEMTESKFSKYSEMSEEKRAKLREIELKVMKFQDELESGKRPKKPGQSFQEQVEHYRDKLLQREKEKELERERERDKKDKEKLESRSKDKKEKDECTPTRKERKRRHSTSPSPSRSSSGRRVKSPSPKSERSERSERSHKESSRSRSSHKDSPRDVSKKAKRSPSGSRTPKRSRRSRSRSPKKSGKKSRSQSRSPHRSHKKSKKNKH
Sequence of UniProt Q969T4 (Q969T4 whole entry): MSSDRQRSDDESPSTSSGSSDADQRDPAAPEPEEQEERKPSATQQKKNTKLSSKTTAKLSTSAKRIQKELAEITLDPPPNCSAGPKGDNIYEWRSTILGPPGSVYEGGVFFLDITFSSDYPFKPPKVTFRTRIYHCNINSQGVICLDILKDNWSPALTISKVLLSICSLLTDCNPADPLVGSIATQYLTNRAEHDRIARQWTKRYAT
Sequence of UniProt O00762 (O00762 whole entry): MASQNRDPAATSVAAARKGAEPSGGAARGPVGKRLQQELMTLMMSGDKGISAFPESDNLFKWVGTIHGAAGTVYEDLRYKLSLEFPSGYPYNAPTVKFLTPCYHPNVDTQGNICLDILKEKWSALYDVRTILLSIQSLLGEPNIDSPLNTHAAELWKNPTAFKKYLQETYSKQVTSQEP

Target	thermal stability z-score [1, 3]	thermal stability z-score ([1]; arsenate co-treatment: none)	thermal stability z-score [2]
TUBGCP5 (UniProt Q96RT8)	-0.335	-0.139	-0.119
TUBGCP6 (UniProt Q96RT7)	0.0893	0.0666	0.0497
TUFM (UniProt P49411)	-2.05	-1.11	-1.29
TULP3 (UniProt O75386)	-0.00846	0.00888	-0.00993
TUSC1 (UniProt Q2TAM9)	0.515	0.368	0.0895
TUT1 (UniProt Q9H6E5)	0.0998	-0.00913	-0.479
TVP23C|TVP23B	0.653	1.19	0.27
TWF1 (UniProt Q12792)	0.503	0.245	-0.412
TWF2 (UniProt Q6IBS0)	-0.088	-0.182	-0.697
TWISTNB (UniProt Q3B726)	-0.926	0.0342	-1.57
TXLNA (UniProt P40222)	0.459	0.0728	2.4
TXLNG (UniProt Q9NUQ3)	0.386	0.0198	1.86
TXN2 (UniProt Q99757)	-0.504	0.00983	2.39
TXN (UniProt P10599)	0.913	0.827	0.598
TXNDC5 (UniProt Q8NBS9)	-2.16	-1.86	0.0646
TXNDC9 (UniProt O14530)	-0.0714	-0.127	0.0909
TXNDC11 (UniProt Q6PKC3)	-0.797	-0.984	0.425
TXNDC12 (UniProt O95881)	-1.11	-1.37	0.744
TXNDC15 (UniProt Q96J42)	-1.92	-0.609	1.16
TXNDC17 (UniProt Q9BRA2)	0.493	0.408	0.728
TXNL1 (UniProt O43396)	-0.206	-0.576	7
TXNL4A (UniProt P83876)	0.343	-0.0818	-0.461
TXNRD1 (UniProt Q16881)	1.24	1.25	4.21
TXNRD2 (UniProt Q9NNW7)	0.179	0.166	4.89
TYMP (UniProt P19971)	0.856	0.677	0.13
TYMS (UniProt P04818)	1.42	0.818	14
TYRO3 (UniProt Q06418)	0.189	-0.0901	-0.136
TYSND1 (UniProt Q2T9J0)	-0.12	-0.377	-0.646

Target	thermal stability z-score [1, 3]	thermal stability z-score ([1]; arsenate co-treatment: none)	thermal stability z-score [2]
TYW1 (UniProt Q9NV66)	-0.0973	0.228	1.04
TYW3 (UniProt Q6IPR3)	-0.419	0.332	-0.177
TYW5 (UniProt A2RUC4)	0.502	0.336	0.66
U2AF1L5|U2AF1	-0.511	-0.0589	-1.4
U2AF2 (UniProt P26368)	-0.241	-0.169	-1.31
U2SURP (UniProt O15042)	0.962	0.428	0.507
UACA (UniProt Q9BZF9)	-0.163	-0.0805	0.02
UAP1 (UniProt Q16222)	0.373	0.0722	-0.553
UAP1L1 (UniProt Q3KQV9)	0.536	0.556	-0.793
UBA1 (UniProt P22314)	-0.526	0.213	-0.439
UBA2 (UniProt Q9UBT2)	-0.378	-0.166	-0.426
UBA3 (UniProt Q8TBC4)	-0.466	-0.282	-0.0439
UBA5 (UniProt Q9GZZ9)	-0.815	-0.52	0.622
UBA6	-0.423	-0.209	0.0818
UBA52 (UniProt P62987)	1.26	1.15	-0.00358
UBAC1 (UniProt Q9BSL1)	0.447	-0.0576	0.576
UBAC2 (UniProt Q8NBM4)	-0.594	-0.778	-0.0559
UBAP1 (UniProt Q9NZ09)	-1.2	-0.177	-0.964
UBAP2 (UniProt Q5T6F2)	0.26	-0.00688	-0.47
UBAP2L (UniProt Q14157)	0.549	0.413	-0.116
UBASH3B (UniProt Q8TF42)	-0.0394	-0.103	-0.165
UBE2A (UniProt P49459)	0.343	0.172	-0.0388
UBE2B (UniProt P63146)	0.48	-0.354	-0.132
UBE2C (UniProt O00762)	0.263	-0.139	0.4
UBE2E1 (UniProt P51965)	0.456	0.441	11.8
UBE2E2 (UniProt Q96LR5)	-0.607	-0.124	4.13
UBE2E3 (UniProt Q969T4)	0.196	-0.0847	1.92
